First: COc1cccc2c(OCc3ccc(C(C)C)cc3)ccc(C=NNC(=O)c3ccc(O)c(Cl)c3)c12
Second: COc1ccc(Cn2cc(C)c3ccc(C(=O)c4ccccc4)cc32)cc1
The melting point of the first is higher: > 250 °C for the first, 146 to 147 °C for the second.

First: COC1=C(OC)C(=O)C2=C(CC(CCCOc3ccc(C(=O)N(C)C)cc3)C2)C1=O
Second: COc1ccc2c(c1)cc(C(=O)c1ccc(C)cc1)n2C
The melting point of the first is lower: 100 to 102 °C for the first, 149 to 151 °C for the second.

First: COc1ccc(-n2c(=O)oc3ccc(-c4ccc(F)cc4F)cc3c2=O)cc1OC
Second: COC(=O)c1c(CSc2nccn2C)nc2cc(OC)c(OC)cc2c1-c1ccc(OC)c(OC)c1
The melting point of the first is higher: 198 to 199 °C for the first, 159 to 160 °C for the second.

Compared with O=C(c1ccc(F)cc1)N1CCc2cc(S(=O)(=O)N3CC(c4ccccc4)NC3=O)ccc21 (stereo not drawn), O=C(/C=C/c1ccc(F)cc1)N1CCN2C(=O)OC(c3ccccc3)(c3ccccc3)C2C1 (stereo not drawn) is higher in melting point: 134 °C for the first, 250 to 251 °C for the second.

First: CON(C)C(=O)C(O)CNC(=O)c1cc2cc(Cl)ccc2[nH]1 (racemic)
Second: COC(=O)C(=O)c1ccc(C#CCNC(=O)c2ccc3ccccc3c2)cc1
The melting point of the first is higher: 192 °C for the first, 113 to 114 °C for the second.

First: COc1ccc(SC(C(=O)O)c2ccccc2)c(Cl)c1Cl (stereo not drawn)
Second: Nc1nc(Nc2ccccc2)sc1C(=O)c1c(Cl)cccc1Cl
The melting point of the first is lower: 180 to 182 °C for the first, 245 to 246 °C for the second.

Compared with CCC(=O)c1cc(Cl)c(OC)cc1OC, CCCC(=O)c1c[nH]c2c(OC)cccc2c1=O is higher in melting point: 115 °C for the first, 200 to 202 °C for the second.

Compared with CNC(=O)c1ccc(C)c(-c2nc(S(C)(=O)=O)nc3c2CNC(=O)N3c2c(F)cccc2F)c1, O=C(Nc1nc(=O)n(S(=O)(=O)c2ccc(Cl)cc2)cc1F)c1ccc(Cl)cc1 is lower in melting point: 275 to 278 °C for the first, 169 to 172 °C for the second.

First: CCOc1nn(-c2ccc(C(F)(F)F)cn2)cc1CCCOc1cc(CCC(=O)O)cc(OC)c1
Second: Cc1nc(N2CCN(Cc3ccc(OC(F)(F)F)cc3)C2=O)sc1C(=O)NCc1cccnc1
The melting point of the first is lower: 99 to 100 °C for the first, 165 to 166 °C for the second.

Compared with Cn1nc(N)c2sc3ccccc3c21, CSc1nc(N)nc(-c2ccccc2)c1-c1ccc(=O)n(C)n1 is higher in melting point: 177 to 178 °C for the first, 233 to 235 °C for the second.

Compared with COc1ccc(S(=O)(=O)N2C(=O)C(OC(=O)N3CCN(c4ccncc4)CC3)(c3ccccc3OC(C)C)c3cc(Cl)ccc32)c(OC)c1 (stereo not drawn), COc1ccc(N2CCN(c3ccc(C)cc3)CC2)c(-c2ccc(N(C)C)cc2)n1 is higher in melting point: 160 to 164 °C for the first, 170 to 173 °C for the second.

First: CC(C)(C)OC(=O)[C@@H]1CS[C@H](c2ccccc2)N1C(=O)CNC(=O)Nc1cccc(C(=O)O)c1
Second: O=C(C=Cc1cccnc1)NCCCCC1CCN(C(=O)c2ccccc2)CC1
The melting point of the first is higher: 134 °C for the first, 100 to 102 °C for the second.

First: CC1(C)CCc2cc(S(=O)(=O)C[N+](=O)[O-])ccc2O1
Second: CC1(C)Oc2cc([N+](=O)[O-])sc2C(N2CCCC2=O)C1O (stereo not drawn)
The melting point of the first is lower: 85 to 86.5 °C for the first, 214 to 217 °C for the second.

Compared with CN1CC(CCCl)Oc2ncc(Cl)cc2C1=O (stereo not drawn), CCn1ncc2c(Cl)c3c(nc21)CCc1ccccc1C3=O is higher in melting point: 78 to 79 °C for the first, 111 to 113 °C for the second.

First: CCCCCCC(=O)CC(=O)c1ccccc1
Second: CCCc1c(OCC(=O)NCCCCc2cccnc2)ccc(C(C)=O)c1O
The melting point of the first is lower: 14 °C for the first, 95 to 97 °C for the second.

First: Cc1ccc(S)c(C(=O)O)c1
Second: Cc1cc(Br)ccc1C(=O)N=CN(C)C
The melting point of the first is lower: 56 to 58 °C for the first, 87 to 89 °C for the second.

Compared with O=C(NC(C(=O)O)c1ccc[nH]1)OCC(Cl)(Cl)Cl (stereo not drawn), NC(=O)NC(=O)c1coc2ccccc2c1=O is higher in melting point: 111 °C for the first, 200 to 217 °C for the second.

Compared with CCOC(=O)c1nc2n(n1)-c1sc(C)c(C)c1C(c1ccccc1)=NC2, CCOC(=O)C1=C(c2ccccc2)Nc2n[nH]cc2C1c1cccc(Cl)c1Cl (stereo not drawn) is higher in melting point: 173 to 174 °C for the first, 214 °C for the second.

First: CCn1cc(C(=O)O)c(=O)c2cc(F)c(N3CCNC(COC)C3)cc21 (stereo not drawn)
Second: CCOC(=O)c1cn(CC)c2cc(-c3ccno3)ccc2c1=O
The melting point of the first is lower: 169 to 170 °C for the first, 243 to 245 °C for the second.

First: C1=Cc2ccccc2SS1
Second: Cc1cccc2c1C=Cc1ccccc1C2Cl (stereo not drawn)
The melting point of the first is lower: 82 to 83 °C for the first, 158 to 160 °C for the second.

First: CCOCc1cc2ccc(OC)cc2oc1=O
Second: CCOC(=O)c1cc2n(C)c3ccc(OC)cc3c(=O)n2n1
The melting point of the first is lower: 64 to 66 °C for the first, 249 to 251 °C for the second.

First: N#CN1C2CCC1CC(c1n[nH]c3cc(F)ccc13)C2 (stereo not drawn)
Second: Cc1cccc(Cl)c1N1CCCN(C2CCC2)C1=S
The melting point of the first is higher: 182 to 184 °C for the first, 89 to 91 °C for the second.

First: CO/C=C(/C(=O)OC)c1ccccc1Oc1ncnc(Cl)n1
Second: COc1cc(OC)nc(NC(=O)NS(=O)(=O)c2nccn2-c2ccccn2)n1
The melting point of the first is lower: 137 to 140 °C for the first, 146 to 149 °C for the second.

Compared with Nc1cccc2c1CN(C1CCC(=O)NC1=O)C2=O (stereo not drawn), COc1ccc2c(c1F)C(=O)OC2=O is lower in melting point: 250 to 252 °C for the first, 128 to 130 °C for the second.

First: Cc1cc2c(s1)Oc1ccc(F)cc1NC2=O
Second: CN(C)C1Cc2cc(Br)cc([N+](=O)[O-])c2NC1=O (stereo not drawn)
The melting point of the first is higher: 274 to 275 °C for the first, 162 to 165 °C for the second.

Compared with Cc1ccccc1C=C1CCn2c1nc1ccc(C(=O)O)cc1c2=O, O=C(Oc1cc(-c2ccccc2)c2ccccc2n1)N1CCCCC1 is lower in melting point: 285 to 287 °C for the first, 85 °C for the second.

Compared with Cc1cc2c(c(C=O)c1C)C(C)(C)CCC2(C)C, COc1ccc(N2CCN(c3c(C)c(C)c4c(c3C)CC(C)(C)O4)CC2)cc1F is higher in melting point: 74 to 80 °C for the first, 161 to 163 °C for the second.

First: Cc1cc(C)nc(N(C=S)c2ccccc2)n1
Second: CN(C)Cc1nnc2n1-c1ccc(Cl)cc1N(c1ccccc1)C(=O)C2
The melting point of the first is lower: 161 to 165 °C for the first, 232 to 234 °C for the second.

First: CCCCCc1ccc(-c2ccc(C(C)=O)cc2)cc1
Second: CCCCc1oc2ccccc2c1C(=O)NCc1ccc2c(-c3ccccc3)c(OCC#N)ccc2c1
The melting point of the first is lower: 81 to 82 °C for the first, 135 to 138 °C for the second.

Compared with O=C(O)C=CC(=O)NCCCCCCCCCCCCCCCCCC(=O)O, CCOc1cc(C(=O)CCCC2CCCCC2)c(O)cc1C is lower in melting point: 144 to 148 °C for the first, 48 to 49 °C for the second.

First: O=C(NC1N=C(c2ccccc2F)c2ccccc2N(C(=O)c2ccc(Cl)cc2)C1=O)c1ccc(Cl)cc1 (racemic)
Second: O=Cc1ccc2c(c1)c1cc(C=O)ccc1n2Cc1ccccc1
The melting point of the first is lower: 190 to 191 °C for the first, 222 to 224 °C for the second.

First: CC(C)c1cccc(C(C)C)c1NC(=O)C1CCCC(Cc2ccccn2)(Cc2ccccn2)C1=O (stereo not drawn)
Second: c1cncc(-c2ccc(N3CCCN(c4ccc(-c5cccnc5)cn4)CC3)nc2)c1
The melting point of the first is lower: 70 to 73 °C for the first, 210 to 211 °C for the second.

First: COc1ccc(N2CCOCC2)c2sc(NC(=O)N3CC4CCC3CO4)nc12 (stereo not drawn)
Second: COc1ccc(C[C@@H]2CCc3ncc(C)cc3C2)cc1
The melting point of the first is higher: 164 to 170 °C for the first, 46 to 48 °C for the second.

Going from CN1CCC(=C2c3cc(C=O)n(C)c3CCn3ncnc32)CC1 to O=[N+]([O-])c1cc2nc(O)c(O)nc2c2[nH]nnc12, the melting point rises from 204 °C to > 300 °C.

Compared with COc1ccc(-c2cncc(OC3SCC(O)C(O)C3O)c2)cc1 (stereo not drawn), CNC(=O)c1cc2c(Oc3ccc(CO)cc3)cncc2s1 is lower in melting point: 216 °C for the first, 195 to 196 °C for the second.

First: CC(C)(C)c1cc(NN=Cc2ccc(C(=O)O)cc2)cc(C(C)(C)C)c1
Second: O=C(OC#CCc1ccccc1)C1CN=CNC1 (stereo not drawn)
The melting point of the first is higher: 208 to 213 °C for the first, 117 to 118 °C for the second.

Compound C[Si](C)(C)c1cccs1 has a melting point of 61 to 62 °C.

Reference: a melting point compilation (Tetko et al.; mined from patent text by program, amines drawn as free bases though some values may be those of a salt)
